According to patent US6428812B1, “Process for producing granules containing angiotensin-converting enzyme inhibiting peptides” (Calpis Co., Ltd., priority 1999, dated 2002):

Target: angiotensin-converting enzyme (ACE) (Homo sapiens, UniProt P12821)
Assay: ACE inhibitory activity
Type: biochemical
Conditions: ratio IPP versus VPP

angiotensin-converting enzyme (ACE), sequence (P12821 30-1306, species assumed): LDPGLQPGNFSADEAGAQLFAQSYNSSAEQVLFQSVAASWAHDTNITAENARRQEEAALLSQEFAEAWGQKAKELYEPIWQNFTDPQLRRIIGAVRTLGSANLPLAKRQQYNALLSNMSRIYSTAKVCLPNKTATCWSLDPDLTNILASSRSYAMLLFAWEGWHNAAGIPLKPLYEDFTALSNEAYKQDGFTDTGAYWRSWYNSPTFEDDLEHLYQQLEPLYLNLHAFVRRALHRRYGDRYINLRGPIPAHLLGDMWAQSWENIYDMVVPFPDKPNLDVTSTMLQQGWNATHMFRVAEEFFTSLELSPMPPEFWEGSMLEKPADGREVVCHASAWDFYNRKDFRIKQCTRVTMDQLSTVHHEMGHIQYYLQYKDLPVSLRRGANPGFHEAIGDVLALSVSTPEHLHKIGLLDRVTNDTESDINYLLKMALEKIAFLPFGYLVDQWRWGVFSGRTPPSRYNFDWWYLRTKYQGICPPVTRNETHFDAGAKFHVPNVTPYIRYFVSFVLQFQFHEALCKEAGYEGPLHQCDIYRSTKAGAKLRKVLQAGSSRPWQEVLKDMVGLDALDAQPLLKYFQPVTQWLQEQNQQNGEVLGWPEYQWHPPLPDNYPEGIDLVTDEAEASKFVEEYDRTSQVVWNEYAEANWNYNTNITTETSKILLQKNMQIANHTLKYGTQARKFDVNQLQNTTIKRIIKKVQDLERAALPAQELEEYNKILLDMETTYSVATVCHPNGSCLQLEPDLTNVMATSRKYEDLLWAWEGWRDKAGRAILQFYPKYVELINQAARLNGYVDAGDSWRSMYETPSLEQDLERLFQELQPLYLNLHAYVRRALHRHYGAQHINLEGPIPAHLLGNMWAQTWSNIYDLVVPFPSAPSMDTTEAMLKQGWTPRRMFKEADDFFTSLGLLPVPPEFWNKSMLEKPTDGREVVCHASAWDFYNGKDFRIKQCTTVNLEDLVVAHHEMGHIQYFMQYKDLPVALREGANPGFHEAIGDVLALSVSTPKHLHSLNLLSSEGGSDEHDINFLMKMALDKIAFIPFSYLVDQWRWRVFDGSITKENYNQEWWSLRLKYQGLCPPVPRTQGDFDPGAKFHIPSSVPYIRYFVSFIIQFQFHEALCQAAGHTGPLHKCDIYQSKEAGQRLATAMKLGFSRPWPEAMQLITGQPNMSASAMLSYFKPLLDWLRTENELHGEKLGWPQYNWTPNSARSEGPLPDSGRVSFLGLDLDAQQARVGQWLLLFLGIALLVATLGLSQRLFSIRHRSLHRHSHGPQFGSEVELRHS

ACEI activity of IPP relative to VPP: 1.7 times
Substance: Ile-Pro-Pro [IPP]
